Data as given in patent US20090325957A1, “MORPHOLINO PYRIMIDINE DERIVATIVES USEFUL IN THE TREATMENT OF PROLIFERATIVE DISORDERS” (ASTRAZENECA AB, priority 2006, published 2009).
pIC50: −log10 of the molar value. Values joined by “and” are separate entries in the source; they are usually repeats but may differ in a detail not shown here. Equal values may be shown once. Read-outs that look alike come from different tables or passages of the source.

Target: recombinant mTOR (Homo sapiens, UniProt P42345)
Assay: In vitro mTOR kinase assay (AlphaScreen), Test (a)
Type: biochemical
Method: (a) In Vitro mTOR Kinase Assay
The assay used AlphaScreen technology (Gray et al., Analytical Biochemistry, 2003, 313: 234-245) to determine the ability of test compounds to inhibit phosphorylation by recombinant mTOR.
The HEK293 FLAG-tagged mTOR (1362-2549) stable cell line was routinely maintained at 37° C. with 5% CO2 up to a confluency of 70-90% in Dulbecco's modified Eagle's growth medium (DMEM; Invitrogen Limited, Paisley, UK Catalogue No. 41966-029) containing 10% heat-inactivated foetal calf serum (FCS; Sigma, Poole, Dorset, UK, Catalogue No. F0392), 1% L-glutamine (Gibco, Catalogue No. 25030-024) and 2 mg/ml Geneticin (G418 sulfate; Invitrogen Limited, UK Catalogue No. 10131-027). Following expression in the mammalian HEK293 cell line, expressed protein was purified using the FLAG epitope tag using standard purification techniques.
Test compounds were prepared as 10 mM stock solutions in DMSO and diluted into water as required to give a range of final assay concentrations. Aliquots (2 μl) of each compound dilution were placed into a well of a Greiner 384-well low volume (LV) white polystyrene plate (Greiner Bio-one).
Control wells that produced a maximum signal corresponding to maximum enzyme activity were created by using 5% DMSO instead of test compound. […] These assay solutions were incubated for 2 hours at room temperature.
Each reaction was stopped by the addition of 10 μl of a mixture of EDTA (50 mM), bovine serum albumin (BSA; 0.5 mg/mL) and Tris-HCl pH7.4 buffer (50 mM) containing
p70 S6 Kinase (T389) 1A5 Monoclonal Antibody (Cell Signalling Technology, Catalogue No. 9206B) and AlphaScreen Streptavidin donor and Protein A acceptor beads (200 ng; Perkin Elmer, Catalogue No. 6760002B and 6760137R respectively) were added and the assay plates were left for about 20 hours at room temperature in the dark. The resultant signals arising from laser light excitation at 680 nm were read using a Packard Envision instrument.
Phosphorylated biotinylated peptide is formed in situ as a result of mTOR mediated phosphorylation. The phosphorylated biotinylated peptide that is associated with AlphaScreen Streptavidin donor beads forms a complex with the p70 S6 Kinase (T389) 1A5 Monoclonal Antibody that is associated with Alphascreen Protein A acceptor beads. Upon laser light excitation at 680 nm, the donor bead: acceptor bead complex produces a signal that can be measured. Accordingly, the presence of mTOR kinase activity results in an assay signal. In the presence of an mTOR kinase inhibitor, signal strength is reduced.
mTOR enzyme inhibition for a given test compound was expressed as an IC50 value.

[1] = average value, read-out: Test (a) average IC50

Sequence of recombinant mTOR (P42345 1362-2549): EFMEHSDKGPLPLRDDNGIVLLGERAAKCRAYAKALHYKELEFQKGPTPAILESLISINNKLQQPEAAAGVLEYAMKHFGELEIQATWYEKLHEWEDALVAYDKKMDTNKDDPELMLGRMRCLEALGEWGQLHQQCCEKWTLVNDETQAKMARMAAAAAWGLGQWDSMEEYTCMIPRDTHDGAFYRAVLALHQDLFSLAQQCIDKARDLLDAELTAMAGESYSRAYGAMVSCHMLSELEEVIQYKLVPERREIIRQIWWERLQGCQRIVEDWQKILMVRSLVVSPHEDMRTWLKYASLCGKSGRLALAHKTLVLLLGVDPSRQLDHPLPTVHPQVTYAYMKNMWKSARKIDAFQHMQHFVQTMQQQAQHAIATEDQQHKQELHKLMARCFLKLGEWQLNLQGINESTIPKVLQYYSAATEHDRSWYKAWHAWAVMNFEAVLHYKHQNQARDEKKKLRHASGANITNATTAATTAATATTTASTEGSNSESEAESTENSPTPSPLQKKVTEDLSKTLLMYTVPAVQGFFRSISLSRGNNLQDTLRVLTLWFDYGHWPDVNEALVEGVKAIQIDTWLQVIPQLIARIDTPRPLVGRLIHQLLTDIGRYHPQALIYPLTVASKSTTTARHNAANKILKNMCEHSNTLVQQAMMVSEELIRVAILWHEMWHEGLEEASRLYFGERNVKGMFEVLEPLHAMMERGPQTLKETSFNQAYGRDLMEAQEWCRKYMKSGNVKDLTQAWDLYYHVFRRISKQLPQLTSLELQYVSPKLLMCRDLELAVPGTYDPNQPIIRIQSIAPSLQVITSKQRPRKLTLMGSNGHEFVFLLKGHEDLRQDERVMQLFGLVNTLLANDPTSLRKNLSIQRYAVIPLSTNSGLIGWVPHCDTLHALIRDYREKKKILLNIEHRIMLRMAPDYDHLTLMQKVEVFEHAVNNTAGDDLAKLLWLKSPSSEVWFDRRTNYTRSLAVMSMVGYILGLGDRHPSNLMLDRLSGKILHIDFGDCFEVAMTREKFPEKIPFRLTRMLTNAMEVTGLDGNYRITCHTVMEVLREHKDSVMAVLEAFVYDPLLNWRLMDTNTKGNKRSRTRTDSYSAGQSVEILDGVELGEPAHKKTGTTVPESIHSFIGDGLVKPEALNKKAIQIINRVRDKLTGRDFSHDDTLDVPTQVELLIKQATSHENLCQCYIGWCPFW

Compound | pIC50 [1] | pIC50 (single values, measured on three occasions, read-out: IC50 versus mTOR kinase)
CS(=O)(=O)Cc1cc(N2CCOCC2)nc(-c2ccc(NS(C)(=O)=O)c(CO)c2)n1 [Example 1, N-[2-(Hydroxymethyl)-4-[4-(methylsulfonylmethyl)-6-morpholin-4-yl-pyrimidin-2-yl]phenyl]methanesulfonamide] | 5.30 | –
CS(=O)(=O)Cc1cc(N2CCOCC2)nc(-c2ccc(CNS(C)(=O)=O)cc2)n1 [Example 2, N-[[4-[4-(Methylsulfonylmethyl)-6-morpholin-4-yl-pyrimidin-2-yl]phenyl]methyl]methanesulfonamide] | 5.17 | –
CS(=O)(=O)Cc1cc(N2CCOCC2)nc(-c2ccc(NS(=O)(=O)C3CC3)cc2)n1 [Example 3, N-[4-[4-(Methylsulfonylmethyl)-6-morpholin-4-yl-pyrimidin-2-yl]phenyl]cyclopropanesulfonamide] | 6.06 | –
CCS(=O)(=O)Nc1ccc(-c2nc(CS(C)(=O)=O)cc(N3CCOCC3)n2)cc1 [Example 3a, N-[4-[4-(methylsulfonylmethyl)-6-morpholin-4-yl-pyrimidin-2-yl]phenyl]ethanesulfonamide] | 5.85 | –

Now from value to compound:

pIC50 [1] | pIC50 (single values, measured on three occasions, read-out: IC50 versus mTOR kinase) | Compound
5.59 | 5.48 and 5.60 and 5.65 | CS(=O)(=O)Cc1cc(N2CCOCC2)nc(-c2ccc(NS(C)(=O)=O)cc2)n1 [Example 4, N-[4-[4-(Methylsulfonylmethyl)-6-morpholin-4-yl-pyrimidin-2-yl]phenyl]methanesulfonamide]
6.00 | – | C[C@H]1COCCN1c1cc(CS(C)(=O)=O)nc(-c2ccc(NS(C)(=O)=O)cc2)n1 [Example 6, N-[4-[4-[(3S)-3-Methylmorpholin-4-yl]-6-(methylsulfonylmethyl)pyrimidin-2-yl]phenyl]methanesulfonamide]
5.22 | – | CCCCS(=O)(=O)Nc1ccc(-c2nc(CS(C)(=O)=O)cc(N3CCOCC3)n2)cc1 [Example 3c, N-[4-[4-(methylsulfonylmethyl)-6-morpholin-4-yl-pyrimidin-2-yl]phenyl]butane-1-sulfonamide]
5.15 | – | CS(=O)(=O)Cc1cc(N2CCOCC2)nc(-c2ccc(NS(=O)(=O)Cc3ccc(F)cc3)cc2)n1 [Example 3d, 1-(4-fluorophenyl)-N-[4-[4-(methylsulfonylmethyl)-6-morpholin-4-yl-pyrimidin-2-yl]phenyl]methanesulfonamide]
5.40 | – | CCCS(=O)(=O)Nc1ccc(-c2nc(CS(C)(=O)=O)cc(N3CCOCC3)n2)cc1 [Example 3b, N-[4-[4-(methylsulfonylmethyl)-6-morpholin-4-yl-pyrimidin-2-yl]phenyl]propane-1-sulfonamide]
5.35 | – | C[C@H]1COCCN1c1cc(CS(C)(=O)=O)nc(-c2ccc(CNS(C)(=O)=O)cc2)n1 [Example 5, N-[[4-[4-[(3S)-3-Methylmorpholin-4-yl]-6-(methylsulfonylmethyl)pyrimidin-2-yl]phenyl]methyl]methanesulfonamide]
